Among the data in ChEMBL document CHEMBL1777762, “Design and synthesis of protein kinase Cα activators based on 'out of pocket' interactions” (Bioorg Med Chem Lett, 2011) are Ki and Activity values, retold here.

Experiment [1] concerns the target T1, Protein kinase C alpha type (Homo sapiens, UniProt P17252). Description: Displacement of [3H]PDBu from human recombinant PKCalpha after 20 mins by liquid scintillation counting. On the technique in general: Loss of bound radioactivity is the signal in a displacement assay; it reports binding, not function.
Experiment [2] deals with T1, Protein kinase C alpha type. Description: Activation of human recombinant PKCalpha assessed as rate of phosphate incorporation into PepTag C1 peptide at 1 to 100 uM after 40 mins by agarose gel electrophoresis analysis.
Experiment [3] shares this target. Description: Activation of human recombinant PKCalpha assessed as rate of phosphate incorporation into PepTag C1 peptide at 0.0001 uM after 40 mins by agarose gel electrophoresis analysis relative to control.
Experiment [4] has the same target. Description: Activation of human recombinant PKCalpha assessed as rate of phosphate incorporation into PepTag C1 peptide at 100 uM after 40 mins by agarose gel electrophoresis analysis relative to control.
Experiment [5] shares this target. Description: Activation of human recombinant PKCalpha assessed as rate of phosphate incorporation into PepTag C1 peptide at 0.01 uM after 40 mins by agarose gel electrophoresis analysis relative to control.
The target is the same in experiment [6]. Description: Activation of human recombinant PKCalpha assessed as rate of phosphate incorporation into PepTag C1 peptide at 10 uM after 40 mins by agarose gel electrophoresis analysis relative to control.
Experiment [7] shares this target. Description: Activation of human recombinant PKCalpha assessed as rate of phosphate incorporation into PepTag C1 peptide at 1 uM after 40 mins by agarose gel electrophoresis analysis relative to control.
Experiment [8] shares this target. Description: Activation of human recombinant PKCalpha assessed as rate of phosphate incorporation into PepTag C1 peptide at 0.1 uM after 40 mins by agarose gel electrophoresis analysis relative to control.
For experiment [9] the target is unchanged. Description: Activation of human recombinant PKCalpha assessed as rate of phosphate incorporation into PepTag C1 peptide at 0.001 uM after 40 mins by agarose gel electrophoresis analysis relative to control.

The source made the active and inactive calls. The rule behind the calls is not given here.

What is called Ki is the dissociation constant of the complex between target and ligand, obtained from inhibition or displacement. Consider `CCCCCCCCCCCCO[C@@H]1[C@H](OCC=C(C)C)[C@@H](OC/C=C/C(C)C)[C@H](OCC#Cc2cccc3c2C(=O)O[C@]3(CO)COC(=O)C(C(C)(C)C)C(C)(C)C)[C@@H](OCC=C(C)C)[C@@H]1OCC=C(C)C`, for which, in experiment [1], the Ki is above 20000 nM. Moreover, the result in [2] was Active.
Regarding `CCCCCCCCCCCCOc1cccc2c1C(=O)O[C@]2(CO)COC(=O)C(C(C)(C)C)C(C)(C)C`, the Ki in [1] worked out at 43 nM.
For the compound `CCCCCCCCCCCCO[C@H]1[C@@H](OCc2ccccc2)[C@H](OCc2ccccc2)[C@@H](OCC#Cc2cccc3c2C(=O)O[C@]3(CO)COC(=O)C(C(C)(C)C)C(C)(C)C)[C@H](OCc2ccccc2)[C@H]1OCc1ccccc1`, in [1], the Ki was above 20000 nM. Further, in [2], the outcome was Active.
The corresponding values for `CCCCCCCCCCCCO[C@H]1[C@@H](OCc2ccc(C(C)C)cc2)[C@H](OCc2ccc(C(C)C)cc2)[C@@H](OCC#Cc2cccc3c2C(=O)O[C@]3(CO)COC(=O)C(C(C)(C)C)C(C)(C)C)[C@H](OCc2ccc(C(C)C)cc2)[C@H]1OCc1ccc(C(C)C)cc1` are above 20000 nM and “Active”.
For the compound `CCCCCCCCCCCCOc1cccc2c1C(=O)O[C@]2(CO)COC(=O)CCCCCCCCCCC`, in [1], the Ki is above 3000 nM.
With `CCCCCCCCCCCCO[C@@H]1[C@H](OC)[C@@H](OC)[C@H](OCC#Cc2cccc3c2C(=O)O[C@]3(CO)COC(=O)C(C(C)(C)C)C(C)(C)C)[C@@H](OC)[C@@H]1OC`, the inhibition constant Ki in [1] came out at 600 nM. Besides, the outcome in experiment [2] was Active.
On to `CCCCCCCCCCCCO[C@H]1[C@@H](OCc2ccc(F)cc2)[C@H](OCc2ccc(F)cc2)[C@@H](OCC#Cc2cccc3c2C(=O)O[C@]3(CO)COC(=O)C(C(C)(C)C)C(C)(C)C)[C@H](OCc2ccc(F)cc2)[C@H]1OCc1ccc(F)cc1`, for which the Ki in experiment [1] was above 20000 nM. In experiment [2], the result was Active.
Consider `CCCCCCCCCCCCCC(=O)O[C@@H]1[C@@H](C)[C@@]2(O)[C@@H](C=C(CO)C[C@]3(O)C(=O)C(C)=C[C@@H]23)[C@@H]2C(C)(C)[C@]12OC(C)=O`, for which the Activity is 0.58% in [3]; 108% in experiment [4]; 62.4% in experiment [5]; 100% in experiment [6]; 85.3% in [7]; 80.6% in experiment [8]. Besides, the Activity in experiment [9] turned out to be 11.1%.
As to `CCCCCCCCCCCCO[C@H]1[C@@H](OC(C)=O)[C@H](OC(C)=O)[C@@H](OCC#Cc2cccc3c2C(=O)O[C@]3(CO)COC(=O)C(C(C)(C)C)C(C)(C)C)[C@H](OC(C)=O)[C@H]1OC(C)=O`, the Ki in [1] amounted to 2340 nM. In addition, the outcome in experiment [2] was Active.
